Among the test systems are DMS 114 small cell lung; LXFL 529 NSCLC; DMS 273 small cell lung; HOP-18 NSCLC; P388 leukemia; P388/ADR leukemia; KM20L2 colon; SN12K1 renal; SR leukemia; RXF-631 renal; MDA-N; 786-0 renal.
Common to all, as to test: NCI tumour cell line growth inhibition, 48 h

Several values for one entry are separate records, joined by “and”; a condition that tells them apart may be missing. Identical values can stand only once.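 Growth conditions: 96-well plates. Treatment: test compound, 48 hours, 5 concentrations. Analysis: linear interpolation between bracketing concentrations; unreached endpoints set to highest concentration. Abbreviation: GI50, concentration required for 50% inhibition of growth. TGI: total growth inhibition.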

This is an account of results in PubChem BioAssay (NCI).

For `COc1cc(/C=N/N=C(\N)NO)ccc1O`, the TGI in the assay with DMS 114 small cell lung and with LXFL 529 NSCLC was greater than 100 µM throughout.
As to `CCN(CC)CCCC(C)Nc1c2ccc(Cl)cc2nc2cc(Cl)ccc12` (stereo not drawn), the TGI with DMS 273 small cell lung was 10.3 µM; in the assay with HOP-18 NSCLC, 18.1 µM; in the assay on DMS 114 small cell lung it was 16.6 µM; in the assay with P388 leukemia, 3.58 µM; in the assay on P388/ADR leukemia, 3.48 µM; with KM20L2 colon, 11.6 µM. Also, the TGI in the assay on SN12K1 renal was found to be 8.47 µM.
With `CC(C)C(=O)Nc1ccc(-c2nc(-c3cccc(OCCN4CCOCC4)c3)c(-c3ccnc(Br)c3)[nH]2)cc1`, in the assay with SR leukemia, the GI50 was 1.83 µM and the TGI is 7.09 µM.
`OC(c1ccccc1)C1CC2C=CC1C2` (stereo not drawn): the TGI with DMS 273 small cell lung, in the assay with DMS 114 small cell lung, with RXF-631 renal and with LXFL 529 NSCLC was greater than 100 µM throughout.
As for `CN(CC(=O)O)CC(=O)O`, the TGI in the assay on MDA-N and in the assay with 786-0 renal was greater than 100 µM each time.
In the assay on SR leukemia, `COc1ccc(N2C(=O)C(=O)N(C)C2=O)c2ccccc12` showed a TGI greater than 10 µM.
On to `COC1=CC(=O)c2c(c(COC(C)=O)cn2C)C1=O`, for which the TGI came out at 0.253 µM in the assay on MDA-N and 0.545 µM in the assay on SR leukemia.
In the case of `CC[C@@]1(O)C(=O)OCc2c1cc1n(c2=O)Cc2cc3c(CN(C)C)c(O)ccc3nc2-1`, the GI50 with DMS 273 small cell lung is 0.0372 µM; with HOP-18 NSCLC, 0.132 µM; in the assay with MDA-N, 0.0241 µM and 0.119 µM and 0.0221 µM; in the assay with DMS 114 small cell lung, less than 0.0351 µM; with KM20L2 colon it was 2.22 µM. For the same compound, the TGI was 1.09 µM and 0.609 µM with DMS 273 small cell lung; 89 µM in the assay with HOP-18 NSCLC; 0.777 µM and 5.2 µM and 0.902 µM in the assay with MDA-N; 0.691 µM and 0.162 µM in the assay with DMS 114 small cell lung; 30.1 µM in the assay with RXF-631 renal; 2.66 µM in the assay on P388 leukemia. For the same compound, the figures for the TGI in the assay with P388/ADR leukemia, with KM20L2 colon and in the assay with SN12K1 renal were 2.77 µM, 8.27 µM and 1.19 µM, respectively.
As for `CC1(CO)C(O)CCC2(C)C1C(O)CC1CC3CC12CCC3(O)CO` (stereo not drawn), the TGI is greater than 199 µM in the assay on DMS 273 small cell lung; greater than 225 µM in the assay on HOP-18 NSCLC; greater than 225 µM in the assay with DMS 114 small cell lung; greater than 22.5 µM in the assay with P388 leukemia; greater than 225 µM in the assay on P388/ADR leukemia; greater than 225 µM in the assay with KM20L2 colon. For the same compound, the TGI in the assay with SN12K1 renal is greater than 225 µM.
On to `O=c1ccc2c(Cl)cccc2o1`, for which the TGI in the assay with MDA-N and in the assay with SR leukemia was greater than 100 µM in each case.
With `CNCCCn1c2c(c3ccc(Cl)cc3c1=O)C(=O)c1cc(OC)cnc1-2`, in the assay with SR leukemia, the GI50 was 0.143 µM and the TGI was found to be 1.11 µM.
As for `CC(C)NC(=O)OCc1nnn2c1CCC2`, the TGI in the assay with SR leukemia, with LXFL 529 NSCLC and in the assay on KM20L2 colon was greater than 100 µM throughout.
`CSC1=C(SC)C(=O)c2cn(C)c(=O)cc2C1=O` displayed a TGI in the assay on MDA-N of 3.06 µM.
For `CC(C(=O)NCCNC(=O)CCCC(=O)N(C)O)C(=O)NCCNC(=O)CCCC(=O)N(C)O`, the TGI with MDA-N and in the assay on SR leukemia was greater than 100 µM each time.
As for `CC(C)=CC1C(COC(=O)c2ccccc2Cl)C1(C)C` (stereo not drawn), the TGI with MDA-N, in the assay on SR leukemia and in the assay on 786-0 renal was greater than 100 µM throughout.
For `C1=Nc2ccccc2Cn2nncc21`, the TGI in the assay on HOP-18 NSCLC, in the assay on SR leukemia, in the assay with LXFL 529 NSCLC and with KM20L2 colon was greater than 100 µM each time.
